Reference: the NIST ThermoML archive (doi:10.1021/je5006938)
± gives the expanded uncertainty stated by the source.

Settings: Liquid, Closed cell (Static) method

For `FC(F)(F)C1(F)OC1(F)F` (configuration not stated) [2,2,3-trifluoro-3-(trifluoromethyl)oxirane], the “vapor or sublimation pressure” value (268.13 K) was 258.47 ± 1.6 kPa, the “vapor or sublimation pressure” value (278.13 K) was 365.66 ± 1.8 kPa and the “vapor or sublimation pressure” value (288.15 K) was 503.71 ± 2.1 kPa. For the same compound, the “vapor or sublimation pressure” value (298.17 K) was 678.24 ± 2.5 kPa, the “vapor or sublimation pressure” value (308.2 K) was 894.42 ± 3 kPa and the “vapor or sublimation pressure” value (318.21 K) was 1160.2 ± 3.4 kPa.

With `FC(F)=C(F)C(F)(F)F` [hexafluoropropene] the “vapor or sublimation pressure” value (268.13 K) was 278.57 ± 1.7 kPa, the “vapor or sublimation pressure” value (278.14 K) was 394.08 ± 1.9 kPa and the “vapor or sublimation pressure” value (288.14 K) was 542.58 ± 2.2 kPa. For the same compound, the “vapor or sublimation pressure” value (298.14 K) was 729.82 ± 2.6 kPa, the “vapor or sublimation pressure” value (308.19 K) was 963.24 ± 3.2 kPa and the “vapor or sublimation pressure” value (318.22 K) was 1251.2 ± 3.6 kPa.
